Test results reported in ChEMBL document CHEMBL3507680, “University of Dundee, Gates Library screen for HepG2 cell viability”.

Experiment: Human HepG2 cell viability assay in 384 well format
Type: toxicity, cell-based
Design: dose 125 nL, time 70.5 hour; cytotoxicity at 70.5 h: concentration not given beside the values
Conditions: HepG2 cells, read-out: Inhibition

With `Cc1nc(-c2noc3ccc(C(=O)NCCN4CCOCC4)cc23)cs1` as the compound, how does the cytotoxicity at 70.5 h read?
The cytotoxicity at 70.5 h was -8.24%.

For `Cc1cccc(N2CC[C@H]3[C@H]2CCN3C(=O)c2cnn(C)c2)n1`, which cytotoxicity at 70.5 h is on record?
The cytotoxicity at 70.5 h was -8.26%.

Which cytotoxicity at 70.5 h does the source give for `CC(C)N1CCc2ncn(C(C)C)c2C1C(=O)NCCN1CCCC1` (centres undefined) here?
Its cytotoxicity at 70.5 h is -7.38%.

For `Cc1nc(-c2noc3ccc(C(=O)NCCN(C)C)cc23)co1`, which cytotoxicity at 70.5 h is on record?
The cytotoxicity at 70.5 h was -7.57%.

With `c1cc(CN2C[C@@H]3OCCN(CC4CCCO4)[C@@H]3C2)co1` (some centres undefined) as the compound, how does the cytotoxicity at 70.5 h read?
The cytotoxicity at 70.5 h was -10.8%.

With `CCS(=O)(=O)N1CCC2(CN(c3cc(OC)ncn3)C2)C1` as the compound, how does the cytotoxicity at 70.5 h read?
Its cytotoxicity at 70.5 h is 12.1%.

For `COc1cccc(N2CC3(CCN(c4ccncn4)C3)CC2=O)c1` (centres undefined), which cytotoxicity at 70.5 h is on record?
Its cytotoxicity at 70.5 h is 14.6%.

Which cytotoxicity at 70.5 h does the source give for `Cc1ccoc1C(=O)N1CCCc2c(c(=O)n(C)n2C)C1` here?
Its cytotoxicity at 70.5 h is 11.9%.

Which cytotoxicity at 70.5 h does the source give for `Cc1ccc(C(=O)N2CCCc3c(c(=O)n(C)n3C)C2)o1` here?
Its cytotoxicity at 70.5 h is 11.7%.

With `Cc1cc(C(=O)N2C[C@@H]3CCCO[C@@H]3[C@H](N3CCOCC3)C2)c(C)[nH]1` as the compound, how does the cytotoxicity at 70.5 h read?
Its cytotoxicity at 70.5 h is -12.4%.

Which cytotoxicity at 70.5 h does the source give for `CC(C)n1cnc(C2CN(C)c3ccc(C(=O)NCC4CC4)cc32)n1` (centres undefined) here?
The cytotoxicity at 70.5 h was -3.88%.

With `c1cc(CN2CCc3nc(N4CCOCC4)nc(NC4CC4)c3C2)co1` as the compound, how does the cytotoxicity at 70.5 h read?
The cytotoxicity at 70.5 h was -10.6%.

For `CS(=O)(=O)N1CCc2ccc(=O)n(CC3CC3)c2CC1`, which cytotoxicity at 70.5 h is on record?
The cytotoxicity at 70.5 h was -7.85%.

Which cytotoxicity at 70.5 h does the source give for `COc1cccc(N2CC3(CCN(c4ccc(C)nn4)C3)CC2=O)c1` (centres undefined) here?
The cytotoxicity at 70.5 h was -2.78%.

For `CN(C)C(=O)CN1C[C@H]2CCN(C(=O)c3ccncc3)CC[C@H]2S1(=O)=O`, which cytotoxicity at 70.5 h is on record?
Its cytotoxicity at 70.5 h is -3.99%.

For `CC(C)CC(=O)N1CC[C@@H]2CN(CC(=O)N(C)C)S(=O)(=O)[C@@H]2CC1`, which cytotoxicity at 70.5 h is on record?
The cytotoxicity at 70.5 h was 1.05%.

For `CCS(=O)(=O)N1CCc2ccc(=O)n(CC3CC3)c2CC1`, which cytotoxicity at 70.5 h is on record?
Its cytotoxicity at 70.5 h is -9.39%.

For `CN(Cc1ccccc1)CC1CC2(CO1)CN(Cc1nccs1)C2` (centres undefined), which cytotoxicity at 70.5 h is on record?
Its cytotoxicity at 70.5 h is -6.93%.

For `Cc1noc(C)c1C(=O)N1C[C@@H]2CCCO[C@@H]2[C@H](N(C)C)C1`, which cytotoxicity at 70.5 h is on record?
Its cytotoxicity at 70.5 h is -8.14%.

For `COCCN1CCC2(CC1)CC(OCC1CC1)c1ccc(C)cc12` (centres undefined), which cytotoxicity at 70.5 h is on record?
Its cytotoxicity at 70.5 h is 5.78%.

With `Cc1cc(C(=O)N2C[C@@H]3CCCO[C@@H]3[C@H](N(C)C(C)C)C2)c(C)[nH]1` as the compound, how does the cytotoxicity at 70.5 h read?
Its cytotoxicity at 70.5 h is -6.48%.

Which cytotoxicity at 70.5 h does the source give for `Cc1cnc(N2CCCn3c(nnc3Cn3cccn3)C2)nc1` here?
The cytotoxicity at 70.5 h was 10.6%.

Which cytotoxicity at 70.5 h does the source give for `CCn1cc2c(n1)CN(S(=O)(=O)Cc1ccccc1)CC2COC` (centres undefined) here?
Its cytotoxicity at 70.5 h is 11.6%.

Which cytotoxicity at 70.5 h does the source give for `O=C(Cc1ccsc1)NC1CCc2c(ccc(=O)n2CC2CC2)C1` (centres undefined) here?
Its cytotoxicity at 70.5 h is 12%.

For `COCCC(=O)N1CC[C@@H](N2CCN(C)CC2)[C@@H]1Cc1ccccc1`, which cytotoxicity at 70.5 h is on record?
Its cytotoxicity at 70.5 h is -1.48%.

With `c1cnn([C@@H]2CN(Cc3nccs3)[C@@H]3CCCO[C@@H]32)c1` as the compound, how does the cytotoxicity at 70.5 h read?
The cytotoxicity at 70.5 h was -6.1%.

For `Cc1noc(C[C@@H]2COC[C@H]3CN(S(=O)(=O)C4CC4)C[C@@H]23)n1`, which cytotoxicity at 70.5 h is on record?
The cytotoxicity at 70.5 h was -5.01%.

With `Cc1noc(C[C@@H]2COC[C@H]3CN(S(C)(=O)=O)C[C@@H]23)n1` as the compound, how does the cytotoxicity at 70.5 h read?
Its cytotoxicity at 70.5 h is -5.3%.

With `CCOCc1cncc2c1CCN(S(=O)(=O)c1ccc(C)cc1)C2` as the compound, how does the cytotoxicity at 70.5 h read?
Its cytotoxicity at 70.5 h is -2.29%.

Which cytotoxicity at 70.5 h does the source give for `O=C(c1ncn2c1CNS(=O)(=O)c1ccccc1-2)N1CCCCCC1` here?
Its cytotoxicity at 70.5 h is 0.0876%.

With `O=C(c1ncn2c1CNS(=O)(=O)c1ccccc1-2)N1CC=CC1` as the compound, how does the cytotoxicity at 70.5 h read?
Its cytotoxicity at 70.5 h is 1.87%.

For `CO[C@@H]1CC[C@H]2[C@H]1OCCN2C(=O)C1CCOCC1`, which cytotoxicity at 70.5 h is on record?
Its cytotoxicity at 70.5 h is -15%.

With `CCN1CC2(CC1=O)CN(Cc1ccoc1)CCN(C(=O)C(C)C)C2` (centres undefined) as the compound, how does the cytotoxicity at 70.5 h read?
The cytotoxicity at 70.5 h was -20.2%.

For `CCOCC1CN(Cc2ccc(F)cc2)Cc2nn(CC3CC3)cc21` (centres undefined), which cytotoxicity at 70.5 h is on record?
The cytotoxicity at 70.5 h was -17.2%.

Which cytotoxicity at 70.5 h does the source give for `CC(=O)N1CC[C@@]2(C(=O)Nc3ccccc3)CCN(S(C)(=O)=O)CC[C@@H]12` here?
Its cytotoxicity at 70.5 h is -1.82%.

With `CC(C)NC(=O)N1CCN(C(=O)C(C)C)CC2(CC(=O)N(C)C2)C1` (centres undefined) as the compound, how does the cytotoxicity at 70.5 h read?
The cytotoxicity at 70.5 h was 7.84%.

For `Cc1noc([C@H]2COC[C@H]3CN(C(=O)Cc4ccccc4F)C[C@H]32)n1`, which cytotoxicity at 70.5 h is on record?
Its cytotoxicity at 70.5 h is -17%.

Which cytotoxicity at 70.5 h does the source give for `CCOCC1COCCC12CCN(C(=O)CCOC)CC2` (centres undefined) here?
The cytotoxicity at 70.5 h was -17.1%.

Which cytotoxicity at 70.5 h does the source give for `COCC1COCCC12CCN(C(=O)Cc1cccc(OC)c1)CC2` (centres undefined) here?
Its cytotoxicity at 70.5 h is -11.4%.

For `COCc1cnc2n1CCN(C(=O)C1=CCCC1)C2C` (centres undefined), which cytotoxicity at 70.5 h is on record?
The cytotoxicity at 70.5 h was -14.6%.

With `CCCS(=O)(=O)N1CC[C@H]2O[C@@H](c3nc(C)no3)CC[C@H]21` as the compound, how does the cytotoxicity at 70.5 h read?
The cytotoxicity at 70.5 h was -21.7%.

With `CCS(=O)(=O)N1CCC2(COCc3cnc(N4CCOCC4)nc32)C1` (centres undefined) as the compound, how does the cytotoxicity at 70.5 h read?
The cytotoxicity at 70.5 h was -6.84%.

With `CC(C)NC(=O)N1CCC2(COCc3cnc(N4CCOCC4)nc32)C1` (centres undefined) as the compound, how does the cytotoxicity at 70.5 h read?
Its cytotoxicity at 70.5 h is 2.23%.

With `O=C(c1cnccn1)N1CCN(CC2CC2)c2ncccc2C1` as the compound, how does the cytotoxicity at 70.5 h read?
The cytotoxicity at 70.5 h was 5.88%.

Which cytotoxicity at 70.5 h does the source give for `Cc1noc([C@H]2COC[C@H]3CN(C(=O)Cc4cccc(F)c4)C[C@H]32)n1` here?
Its cytotoxicity at 70.5 h is -16.4%.

For `CN(C)C(=O)C1OC2(CCN(C(=O)c3ccco3)CC2)c2ccccc21` (centres undefined), which cytotoxicity at 70.5 h is on record?
Its cytotoxicity at 70.5 h is -16.7%.

Which cytotoxicity at 70.5 h does the source give for `Cc1noc([C@@H]2CC[C@@H]3[C@@H](CCN3S(=O)(=O)c3ccccc3)O2)n1` here?
Its cytotoxicity at 70.5 h is -14.9%.

For `Cc1nc(N2CCCC2)nc2c1CCN(C(=O)C1CCC1)CC2`, which cytotoxicity at 70.5 h is on record?
The cytotoxicity at 70.5 h was -12.5%.

Which cytotoxicity at 70.5 h does the source give for `COc1ncccc1C(=O)N1CC[C@H]2C[C@@H](c3noc(C)n3)O[C@@H]2C1` here?
The cytotoxicity at 70.5 h was -8.55%.
